Experimental data from patent US11667674B2, “Antibacterial cyclic lipopeptides” (priority 2016, dated 2023).
≈ marks a conversion by molar mass, not a printed value. Like-named read-outs stand apart in the source and are kept apart here.

Tests used:
[1] = test system: MRSA ATCC33591; experiment: Neutropenic mouse thigh infection model; format: in vivo, S. aureus; parameters: Δ (thigh c.f.u. versus control): unit not given here; settings: for Thigh colony-forming units (c.f.u): neutropenic ICR mice, thighs at 24 h, X ± SD, n = 5
Description: Compound 1 was tested against MRSA ATCC33591 in a neutropenic mouse thigh infection model. Both female and male ICR mice were rendered neutropenic by cyclophosphamide (three consecutive doses of 150 mg per kg delivered before infection). At day 4, bacteria were resuspended in sterile saline, 0.1 ml inoculum (MRSA ATCC33591, 5.0×10^6 c.f.u/ml) was injected into the left thighs of mice. At 2 h post-infection, mice received treatment with Compound 1 at 0.63, 1.25, 2.5, 5.0 mg per kg administered in a single dose (10 ml/kg), intravenous injection (five mice per group). At 24 h post-infection, the left thighs were aseptically removed, weighed, homogenized, serially diluted and plated on trypticase soy agar for c.f.u titres.

[2] = test system: MRSA ATCC43300; experiment: Right-sided endocarditis rat model; format: in vivo, S. aureus; settings: for Log10 (CFU/g) of vegetation / Vegetation weight: Sprague-Dawley rats, 1 time/day for 2 days, 3 animals
Description: Male Sprague-Dawley rats (280-300 g) were intraperitoneally anesthetized with sodium pentobarbital solution (40 mg/kg). The rat chin area was treated with 75% alcohol. The right carotid artery was exposed through an anterior incision just slight right of midline above the calvicles. Polyethylene tubing was placed over 4-4.5 cm guided wire and passed within the right carotid artery into the left ventricle until resistance was met. Cardiac pulsations of the catheter indicated proper placement of the catheter tip at the apex of the heart. 0.5 ml inoculum of the overnight cultures (ATCC43300m 3.5×10^4 c.f.u./mL) was injected through a tail vein. After 24 hours of infection, the surviving rats were randomly divided into control group and treatment group. Compound 1 and daptomycin was administered via tail vein for 2 days (1 time/day). 24 h after the last administration, the animals were anesthetized and sacrificed. Vegetations and tissue samples were excised, weighed, homogenized, serially diluted and plated on trypticase soy agar for c.f.u titres.

[3] = test system: Clostridium difficile ATCC43255; experiment: in vitro anti-Clostridium difficile MIC, standard broth dilution method; format: cell-based
Description: (§1) Anti-Clostridium difficile activity of compound 1 was tested on two strains, C. difficile BAA-1382 and […], using the standard broth dilution method as described by the Clinical Laboratory Standard Institute.

[4] = test system: Clostridium difficile ATCCBAA-1382; experiment: as above; format: cell-based; settings: for MIC: Clostridium difficile ATCCBAA-1382; for anti-Clostridium difficile activity compared with vancomycin and daptomycin: in words, both strains of Table 3
Description: as §1

[5] = test system: MRSA ATCC 33591
[6] = 0.63 mg/kg single i.v. dose 2 h post-infection
[7] = 1.25 mg/kg single i.v. dose 2 h post-infection
[8] = 2.50 mg/kg single i.v. dose 2 h post-infection
[9] = 5.00 mg/kg single i.v. dose 2 h post-infection
[10] = Clostridium difficile ATCC43255

Compound | Δ (thigh c.f.u. versus control) ([1]; 0.63 mg/kg) | Δ (thigh c.f.u. versus control) ([1]; 1.25 mg/kg) | Δ (thigh c.f.u. versus control) ([1]; 2.50 mg/kg) | Δ (thigh c.f.u. versus control) ([1]; 5.00 mg/kg) | Thigh colony-forming units (c.f.u) [1, 6] | Thigh colony-forming units (c.f.u) [1, 7] | Thigh colony-forming units (c.f.u) [1, 8] | Thigh colony-forming units (c.f.u) [1, 9] | MIC [3, 10] [µg/mL] | MIC [4] [µg/mL] | anti-Clostridium difficile activity compared with vancomycin and daptomycin [4] | MIC [5] [µg/mL] | also measured
CCCCCCCCCC(=O)N[C@@H](Cc1c[nH]c2ccccc12)C(=O)N[C@H](CC(N)=O)C(=O)N[C@@H](CC(=O)O)C(=O)N[C@@H]1C(=O)NCC(=O)N[C@@H](CCCN)C(=O)N[C@@H](CC(=O)O)C(=O)N[C@H](C)C(=O)N[C@@H](CC(=O)O)C(=O)NCC(=O)N[C@H](CO)C(=O)N[C@@H](C(C)CC(=O)O)C(=O)N[C@@H](CC(=O)c2ccccc2NC)C(=O)O[C@@H]1C (some centres unmarked) [Compound 1] | 0.97 | 1.77 | 3.15 | 5.18 | 7.93 ± 0.85 log(CFU/thigh) | 7.13 ± 0.25 log(CFU/thigh) | 5.75 ± 0.35 log(CFU/thigh) | 3.72 ± 0.35 log(CFU/thigh) | 0.5 (≈ 0.306 µM) | 0.5 (≈ 0.306 µM) | better activities than vancomycin and daptomycin | 0.5 (≈ 0.306 µM) | antibacterial activity compared with daptomycin ([1]; doses of 1.25 and 2.50 mg/kg, mice with thigh infected with S. aureus): significantly better antibacterial activity; Δ (Log10 CFU/g of vegetation versus control) ([2]; 20 mg/kg): 1.78; Log10 (CFU/g) of vegetation ([2]; 20 mg/kg via tail vein): 7.53 ± 1.08 Log10 (CFU/g); Vegetation weight ([2]; 20 mg/kg via tail vein): 0.012 ± 0.002 g; infection of S. aureus compared with the control groups and daptomycin ([2]; right-sided endocarditis rats): significantly decrease the infection of S. aureus
CCCCCc1ccc(/C(C)=C/C(=O)N[C@@H](Cc2c[nH]c3ccccc23)C(=O)N[C@H](CC(N)=O)C(=O)N[C@@H](CC(=O)O)C(=O)N[C@@H]2C(=O)NCC(=O)N[C@@H](CCCN)C(=O)N[C@@H](CC(=O)O)C(=O)N[C@H](C)C(=O)N[C@@H](CC(=O)O)C(=O)NCC(=O)N[C@H](CO)C(=O)N[C@@H](C(C)CC(=O)O)C(=O)N[C@@H](CC(=O)c3ccccc3NC)C(=O)O[C@@H]2C)cc1 (some centres unmarked) [Compound 7] |  |  |  |  |  |  |  |  | 0.25 (≈ 0.148 µM) | 0.25 (≈ 0.148 µM) | better activities than vancomycin and daptomycin |  | 
CCCCCCCCCC(=O)N[C@@H](Cc1c[nH]c2ccccc12)C(=O)N[C@H](CC(N)=O)C(=O)N[C@@H](CC(=O)O)C(=O)N[C@@H]1C(=O)NCC(=O)N[C@@H](CCCN)C(=O)N[C@@H](CC(=O)O)C(=O)N[C@H](C)C(=O)N[C@@H](CC(=O)O)C(=O)NCC(=O)N[C@H](CO)C(=O)N[C@@H]([C@H](C)CC(=O)O)C(=O)N[C@@H](CC(=O)c2ccccc2N)C(=O)O[C@@H]1C [daptomycin, reference compound] | 0.88 | 1.09 | 1.97 | 4.97 | 8.02 ± 0.48 log(CFU/thigh) | 7.81 ± 0.37 log(CFU/thigh) | 6.93 ± 0.57 log(CFU/thigh) | 3.93 ± 0.84 log(CFU/thigh) | 1 (≈ 0.617 µM) | 1 (≈ 0.617 µM) |  | 1 (≈ 0.617 µM) | Δ (Log10 CFU/g of vegetation versus control) ([2]; 40 mg/kg): 0.73; Log10 (CFU/g) of vegetation ([2]; 40 mg/kg via tail vein): 8.58 ± 0.55 Log10 (CFU/g); Vegetation weight ([2]; 40 mg/kg via tail vein): 0.007 ± 0.001 g
CCCCCc1ccc(/C(C)=C/C(=O)N[C@@H](Cc2c[nH]c3ccccc23)C(=O)N[C@H](CC(N)=O)C(=O)N[C@@H](CC(=O)O)C(=O)N[C@@H]2C(=O)NCC(=O)N[C@@H](CCCN)C(=O)N[C@@H](CC(=O)O)C(=O)N[C@H](C)C(=O)N[C@@H](CC(=O)O)C(=O)NCC(=O)N[C@H](CO)C(=O)N[C@@H]([C@H](C)CC(=O)O)C(=O)N[C@@H](CC(=O)c3ccccc3N)C(=O)O[C@@H]2C)cc1 [surotomycin, reference compound] |  |  |  |  |  |  |  |  | 0.5 (≈ 0.297 µM) | 0.5 (≈ 0.297 µM) |  |  | 
CN[C@H](CC(C)C)C(=O)N[C@H]1C(=O)N[C@@H](CC(N)=O)C(=O)N[C@H]2C(=O)N[C@H]3C(=O)N[C@H](C(=O)N[C@H](C(=O)O)c4cc(O)cc(O)c4-c4cc3ccc4O)[C@H](O)c3ccc(c(Cl)c3)Oc3cc2cc(c3O[C@@H]2O[C@H](CO)[C@@H](O)[C@H](O)[C@H]2O[C@H]2C[C@](C)(N)[C@H](O)[C@H](C)O2)Oc2ccc(cc2Cl)[C@H]1O [vancomycin, reference compound] |  |  |  |  |  |  |  |  |  |  |  |  | MIC ([3]; Clostridioides difficile, ATCC43255): 1 µg/mL (≈ 0.69 µM); MIC ([4]; Clostridioides difficile, ATCCBAA1382, read-out: MIC): 1 µg/mL (≈ 0.69 µM)
